Laboratory results as given in PMC3087488 (Journal of Oncology, 2011).
pIC50: −log10 of the molar value.

Experiments:
[1] = phase 1b dose escalation: dose-limiting toxicities and MTD; settings: in combination with panitumumab and gemcitabine/cisplatin; patients with advanced solid tumors
[2] = system: human umbilical vein endothelial cell (HUVEC) proliferation; parameters: method as in PMID 16951187; settings: cited from earlier work
[3] = system: advanced solid tumors; experiment: tumor response per modified RECIST; settings: for Confirmed complete response / Confirmed objective response, % (95% CI) / Confirmed partial response / Durable stable disease (≥24 weeks) / Progressive disease / Stable disease / Unevaluable / Clinical benefit rate (CR + PR + durable SD): gemcitabine/cisplatin
[4] = system: VEGFR1; parameters: method as in PMID 16951187; settings: cited from earlier work
[5] = system: VEGFR3; parameters: method as in PMID 16951187; settings: cited from earlier work
[6] = system: Kit; parameters: method as in PMID 16951187; settings: cited from earlier work
[7] = motesanib plasma pharmacokinetics in patients; format: in vivo, human
Procedure: Plasma motesanib and gemcitabine concentrations were analyzed using a validated liquid chromatography/tandem mass spectrometry (LC-MS/MS) method, respectively. […] All pharmacokinetic parameter estimates were calculated using standard noncompartmental methods and WinNonlin Professional software on […] (Version 5.1.1, Pharsight Corporation, Mountain View, Calif, USA).

[8] = motesanib 50 mg QD (n = 8) + panitumumab
[9] = motesanib 75 mg BID (n = 2) + panitumumab
[10] = motesanib 75 mg QD (n = 6) + panitumumab
[11] = motesanib 100 mg QD (n = 6) + panitumumab
[12] = motesanib 125 mg QD (n = 11) + panitumumab

CC1(C)CNc2cc(NC(=O)c3cccnc3NCc3ccncc3)ccc21 [motesanib]
maximum tolerated dose (MTD) of motesanib [1]: 100 mg QD | 90% inhibitory concentration (IC90) for HUVEC proliferation [2]: 0.028 µg/mL | IC50 for HUVEC proliferation [2]: 0.004 µg/mL | patients with durable (≥24 weeks) stable disease ([3]; all 41 patients): six | patients with confirmed partial response ([3]; all 41 patients incl. 0-mg cohort): 9 patients | confirmed objective response ([3]; all 41 patients incl. 0-mg cohort, 10 patients, 95% CI, 12.4–40.3): 24% | patients with best response of stable disease ([3]; all 41 patients, twenty patients): 49% | median progression-free survival ([3]; all patients): 197 days | Kaplan-Meier estimate of median progression-free survival ([3]; all patients, 95% CI: 2.8—not estimable): 28 weeks | patients with complete response as best objective response ([3]; all patients, breast cancer): One | Confirmed complete response [3, 8]: 0 (0) n (%) | Confirmed objective response, % (95% CI) [3, 8]: 0 (0–36.9) % | Confirmed partial response [3, 8]: 0 (0) n (%) | Durable stable disease (≥24 weeks) [3, 8]: 0 (0) n (%) | Progressive disease [3, 8]: 2 (25) n (%) | Stable disease [3, 8]: 5 (63) n (%) | Unevaluable [3, 8]: 0 (0) n (%) | Clinical benefit rate (CR + PR + durable SD) [3, 9]: 2 (100) n (%) | Confirmed complete response [3, 9]: 0 (0) n (%) | Confirmed objective response, % (95% CI) [3, 9]: 50 (1.3–98.7) % | Confirmed partial response [3, 9]: 1 (50) n (%) | Durable stable disease (≥24 weeks) [3, 9]: 0 (0) n (%) | Progressive disease [3, 9]: 0 (0) n (%) | Stable disease [3, 9]: 1 (50) n (%) | Unevaluable [3, 9]: 0 (0) n (%) | Confirmed complete response [3, 10]: 0 (0) n (%) | Confirmed objective response, % (95% CI) [3, 10]: 17 (0.4–64.1) % | Confirmed partial response [3, 10]: 1 (17) n (%) | Durable stable disease (≥24 weeks) [3, 10]: 3 (50) n (%) | Progressive disease [3, 10]: 0 (0) n (%) | Stable disease [3, 10]: 4 (67) n (%) | Unevaluable [3, 10]: 1 (17) n (%) | Clinical benefit rate (CR + PR + durable SD) [3, 11]: 6 (100) n (%) | Confirmed partial response [3, 11]: 3 (50) n (%) | Durable stable disease (≥24 weeks) [3, 11]: 1 (17) n (%) | Progressive disease [3, 11]: 0 (0) n (%) | Stable disease [3, 11]: 2 (33) n (%) | Unevaluable [3, 11]: 0 (0) n (%) | Clinical benefit rate (CR + PR + durable SD) [3, 12]: 6 (55) n (%) | Confirmed complete response [3, 12]: 0 (0) n (%) | Confirmed objective response, % (95% CI) [3, 12]: 18 (2.3–51.8) % | Confirmed partial response [3, 12]: 2 (18) n (%) | Durable stable disease (≥24 weeks) [3, 12]: 1 (9) n (%) | Progressive disease [3, 12]: 1 (9) n (%) | Stable disease [3, 12]: 4 (36) n (%) | Unevaluable [3, 12]: 1 (9) n (%) | patients with complete response, partial response, or stable disease as best response ([3]; of the 41 patients enrolled): 30 patients | pIC50 [4]: […] | pIC50 [5]: […] | pIC50 [6]: […] | concentration at 24 h ([7]; human, in vivo, mean daily motesanib C 24 (above IC50 for HUVEC proliferation)): > 4 ng/mL | concentration at 24 h ([7]; human, in vivo, mean daily motesanib C 24 (higher than IC90 for HUVEC proliferation)): > 28 ng/mL | half-life ([7]; human, in vivo, mean estimated terminal elimination half-life (t 1/2,z)): 5.21 to 6.72 h | Tmax ([7]; human, in vivo, po): ~1 h | C max, mean (SD) ([7]; motesanib 75 mg QD (n = 3 − 6), single dose, + panitumumab, gemcitabine/cisplatin): 186 (92) ng/mL
